Tests used:
[1] = system: Human immunodeficiency virus 1; assay: Antiviral activity against HIV NL4-3 infected in human MT4 cells measured on day 3 post-infection by Nano-Glo luciferase assay; format: functional, organism-based; details: Human immunodeficiency virus 1, NL4-3, MT4, 72 h
[2] = Selectivity index, ratio of CC50 for human MT4 cells to IC50 for HIV NL4-3 infected in human MT4 cells; format: toxicity, cell-based; details: read-out: Ratio CC50/IC50
[3] = Cytotoxicity against human MT4 cells measured after 3 days by CytoTox-Glo assay; format: cell-based

Row | Compound | IC50 [1] [nM] | selectivity ratio [2] | CC50 at 72 h [3] [nM]
1 | CCCCC/C=C/C=C/C(=O)O[C@@H]1C(COC(C)=O)=C[C@@H]2C(=O)[C@]3(C=C(C)[C@H](O)[C@@]13O)[C@H](C)C[C@@H]1[C@H]2C1(C)C | 1.2 | 13000 | 15200
2 | CCCCC/C=C\C=C\C(=O)O[C@H]1C(C)=C[C@]23C(=O)[C@@H](C=C(COC(C)=O)[C@@H](O)[C@]12O)[C@H]1[C@@H](C[C@H]3C)C1(C)C | 1.8 | > 526 | > 900
3 | CCCCC/C=C/C=C/C(=O)O[C@H]1C(C)=C[C@]23C(=O)[C@@H](C=C(COC(C)=O)[C@@H](O)[C@]12O)[C@H]1[C@@H](C[C@H]3C)C1(C)C | 5 | > 185 | > 900
4 | CCCCCCCCCCCCCCCC(=O)OCC1=C[C@@H]2C(=O)[C@]3(C=C(C)[C@H](O)[C@@]3(O)[C@@H]1O)[C@H](C)C[C@@H]1[C@H]2C1(C)C | 1.1 | > 1540 | > 1700
5 | CCCCCC/C=C/CCCCCCCC(=O)O[C@H]1C(C)=C[C@]23C(=O)[C@@H](C=C(CO)[C@@H](O)[C@@]12O)[C@H]1[C@@H](C[C@H]3C)C1(C)C | 1.1 | 13100 | 13900
6 | CCCC\C=C/C=C\C=C\C(=O)O[C@H]1C(C)=C[C@]23C(=O)[C@@H](C=C(COC(C)=O)[C@@H](O)[C@]12O)[C@H]1[C@@H](C[C@H]3C)C1(C)C | 9.7 | > 96.2 | > 900
7 | CCCCCC/C=C\CCCCCCCC(=O)O[C@H]1C(C)=C[C@]23C(=O)[C@@H](C=C(CO)[C@@H](O)[C@@]12O)[C@H]1[C@@H](C[C@H]3C)C1(C)C | 2.7 | > 625 | > 1700
8 | CCCCCCCCCCCCCC(=O)O[C@@H]1C(CO)=C[C@@H]2C(=O)[C@]3(C=C(C)[C@H](O)[C@@]13O)[C@H](C)C[C@@H]1[C@H]2C1(C)C | 3.9 | > 454 | > 1800
9 | CCCCCCCCCC(=O)OCC1=C[C@@H]2C(=O)[C@]3(C=C(C)[C@H](O)[C@@]3(O)[C@@H]1O)[C@H](C)C[C@@H]1[C@H]2C1(C)C | 8.2 | 5980 | 48800
10 | CC1=C[C@]23C(=O)[C@@H](C=C(CO)[C@@H](O)[C@]2(O)[C@H]1O)[C@H]1[C@@H](C[C@H]3C)C1(C)C [INGENOL] | > 10 | – | > 10000
11 | Cc1cn([C@H]2C[C@H](N=[N+]=[N-])[C@@H](CO)O2)c(=O)[nH]c1=O [ZIDOVUDINE] | 18.7 | > 20 | > 370

Continued, in another order:

Row | IC50 [1] [nM] | Compound | selectivity ratio [2] | CC50 at 72 h [3] [nM]
12 | 4.1 | CCCCCCCCCCCCCCCC(=O)O[C@H]1C(C)=C[C@]23C(=O)[C@@H](C=C(CO)[C@@H](O)[C@]12O)[C@H]1[C@@H](C[C@H]3C)C1(C)C | 6420 | 26300
13 | 0.7 | CCCCC/C=C\C=C\C(=O)O[C@@H]1C(COC(C)=O)=C[C@@H]2C(=O)[C@]3(C=C(C)[C@H](O)[C@@]13O)[C@H](C)C[C@@H]1[C@H]2C1(C)C | 20300 | 14300
14 | 2.3 | CCCCCCCCCCCCCC(=O)O[C@H]1C(C)=C[C@]23C(=O)[C@@H](C=C(CO)[C@@H](O)[C@]12O)[C@H]1[C@@H](C[C@H]3C)C1(C)C | 11300 | 26300
15 | 8.4 | CCCC\C=C/C=C/C=C/C(=O)O[C@H]1C(C)=C[C@]23C(=O)[C@@H](C=C(COC(C)=O)[C@@H](O)[C@]12O)[C@H]1[C@@H](C[C@H]3C)C1(C)C | > 111 | > 900
16 | 4.4 | CCCCCCCCCCCCCCCC(=O)O[C@@H]1C(CO)=C[C@@H]2C(=O)[C@]3(C=C(C)[C@H](O)[C@@]13O)[C@H](C)C[C@@H]1[C@H]2C1(C)C | > 385 | > 1700
17 | 8.6 | CCCCCCCCCCCCCC(=O)OCC1=C[C@@H]2C(=O)[C@]3(C=C(C)[C@H](O)[C@@]3(O)[C@@H]1O)[C@H](C)C[C@@H]1[C@H]2C1(C)C | 3770 | 32400
